One assay deals with Jurkat T-cells. Description: Transwell migration of Jurkat T-cells through collagen type-IV. It is filed as cell-based, human. The following applies: peptide, SDF-1 in lower chamber. As to the method:
FIGS. 4A-4H. […] Briefly, membranes from transwell migration chambers were coated with either native collagen type-IV or denatured collagen type-IV. T-cell variants were incubated with non-specific control peptide CP, or the RGDKGE (SEQ ID NO: 1)-containing collagen peptide (P2) and seed on the coated transwell membranes. T-cells were allowed to migrate in the presence or absence of SDF-1 added to the lower chamber for approximately 1.5 hours. Cell migration was quantified by counting the number of crystal violet stained cells that had migrated through to the underside of the coated membrane. FIG. 4A. Jurkat T-cell migration through denatured collagen type-IV in the presence of non-specific control peptide CP or RGDKGE (SEQ ID NO: 1)-containing collagen peptide P2 with SDF-1. FIG. 4B. Jurkat T-cell migration through native collagen type-IV in the presence of non-specific control peptide CP or RGDKGE (SEQ ID NO: 1)-containing collagen peptide P2 with SDF-1. FIG. 4C. Cem/C1 T-cell migration through denatured collagen type-IV in the presence of non-specific control peptide CP or RGDKGE (SEQ ID NO: 1)-containing collagen peptide P2 with SDF-1. FIG. 4D. […]
FIGS. 5A-5F. […] Cell migration was quantified by counting the number of crystal violet stained cells that had migrated through to the underside of the coated membrane. […]

A further assay concerns the target αvβ3 (Homo sapiens, UniProt P05106+P06756). The following applies: cited from earlier work.

Chain of αvβ3 (P06756 31-889 limits assumed): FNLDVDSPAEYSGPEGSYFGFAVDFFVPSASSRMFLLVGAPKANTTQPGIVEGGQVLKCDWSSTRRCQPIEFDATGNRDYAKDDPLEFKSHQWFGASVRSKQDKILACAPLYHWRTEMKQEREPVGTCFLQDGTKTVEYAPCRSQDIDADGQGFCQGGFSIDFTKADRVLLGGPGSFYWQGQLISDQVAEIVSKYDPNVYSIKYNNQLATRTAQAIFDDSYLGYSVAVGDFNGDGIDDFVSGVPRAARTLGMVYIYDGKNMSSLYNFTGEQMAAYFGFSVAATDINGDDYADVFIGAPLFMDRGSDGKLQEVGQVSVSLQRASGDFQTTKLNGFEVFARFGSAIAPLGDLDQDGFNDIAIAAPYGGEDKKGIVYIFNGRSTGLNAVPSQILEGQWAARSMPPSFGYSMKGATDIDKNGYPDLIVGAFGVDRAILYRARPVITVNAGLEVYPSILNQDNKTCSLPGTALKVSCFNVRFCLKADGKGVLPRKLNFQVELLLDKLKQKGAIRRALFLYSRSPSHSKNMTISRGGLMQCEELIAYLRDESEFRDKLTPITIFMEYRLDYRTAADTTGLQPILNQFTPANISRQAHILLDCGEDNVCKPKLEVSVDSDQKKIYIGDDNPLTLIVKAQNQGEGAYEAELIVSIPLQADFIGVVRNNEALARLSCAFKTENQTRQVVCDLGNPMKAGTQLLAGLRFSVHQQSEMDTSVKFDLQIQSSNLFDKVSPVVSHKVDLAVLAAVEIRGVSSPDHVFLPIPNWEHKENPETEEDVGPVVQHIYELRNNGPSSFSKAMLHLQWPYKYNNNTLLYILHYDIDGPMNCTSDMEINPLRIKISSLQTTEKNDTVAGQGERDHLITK
Chain of αvβ3 (P06756 891-1048 partner limits assumed): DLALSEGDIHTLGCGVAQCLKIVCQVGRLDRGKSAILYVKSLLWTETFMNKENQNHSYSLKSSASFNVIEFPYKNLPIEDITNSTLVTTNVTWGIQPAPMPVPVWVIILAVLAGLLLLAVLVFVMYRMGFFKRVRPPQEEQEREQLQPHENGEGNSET
Chain of αvβ3 (P05106 27-788): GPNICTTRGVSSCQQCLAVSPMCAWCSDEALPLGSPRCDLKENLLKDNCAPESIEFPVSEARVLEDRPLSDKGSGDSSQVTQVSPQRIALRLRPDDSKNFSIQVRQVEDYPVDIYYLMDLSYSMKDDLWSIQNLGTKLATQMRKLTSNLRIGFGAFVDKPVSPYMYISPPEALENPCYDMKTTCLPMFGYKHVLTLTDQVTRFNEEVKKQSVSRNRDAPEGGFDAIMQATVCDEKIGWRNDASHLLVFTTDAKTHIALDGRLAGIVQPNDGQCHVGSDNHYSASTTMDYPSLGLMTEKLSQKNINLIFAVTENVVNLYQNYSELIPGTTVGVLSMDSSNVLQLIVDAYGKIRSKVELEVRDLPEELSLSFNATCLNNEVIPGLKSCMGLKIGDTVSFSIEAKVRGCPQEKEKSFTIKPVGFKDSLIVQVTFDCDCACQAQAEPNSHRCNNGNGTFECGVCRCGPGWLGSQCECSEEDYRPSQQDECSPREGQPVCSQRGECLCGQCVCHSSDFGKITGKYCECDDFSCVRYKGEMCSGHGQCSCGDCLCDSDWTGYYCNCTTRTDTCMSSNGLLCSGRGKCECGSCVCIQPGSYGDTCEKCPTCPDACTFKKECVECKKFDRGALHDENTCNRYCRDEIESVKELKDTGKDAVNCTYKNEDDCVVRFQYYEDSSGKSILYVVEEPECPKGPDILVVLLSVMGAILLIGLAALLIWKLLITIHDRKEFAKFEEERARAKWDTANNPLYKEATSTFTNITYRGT

With “QGPRGDKGE (CQGPRGDKGEC; Synthetic: Synthetic collagen RGD containing peptide P-2) [Peptide P2, synthetic version of the soluble RGDKGE-containing collagen peptide]”, the “Jurkat T-cell migration” value is “selectively inhibited” in the assay on Jurkat T-cells (denatured collagen type-IV) and “neither the soluble RGDKGE (SEQ ID NO: 1) collagen peptide P2, nor the non-specific control peptide had any significant effect” in the assay with Jurkat T-cells (native collagen type-IV). Further, the “binding to αvβ3” value in the assay with αvβ3 is reported as “bound”.
